Results reported in article PMC3472974, “The Bite of the Honeybee: 2-Heptanone Secreted from Honeybee Mandibles during a Bite Acts as a Local Anaesthetic in Insects and Mammals” (PLoS ONE, 2012).
Converted amounts (≈) assume the structure as drawn. Like-named read-outs stand apart in the source and are kept apart here. Marks after values point to notes of the source that are not given here.

Legend:
Varroa destructor = assay: Gravitational reflex of Varroa mites after topical application; type: in vivo
Experimental: We tested 2-H on a far smaller arthropod that parasitizes honeybees, the mite, Varroa destructor. When 0.025 µL of 2-H was applied topically to the sternum of mites (n = 10) fixed ventral side up, the gravitational reflex–the rhythmic expansion of the thorax and abdomen [15]–was distorted (Fig. 3d). When the concentration was increased to 0.061 µL, the gravitational reflex completely malfunctioned and the Varroa mites (n = 10) were totally paralysed within 30–40 s (Fig. 3e) with no recovery, even after 12 h of observation. We applied larger concentrations of 2-H to the Varroa mites topically because the mites’ small size made it impossible to inject 2-H into the haemolymph.

[1] = test system: isolated rat sciatic nerve; assay: tissue or blood
Description: The ex vivo studies used both male and female rats weighing between 230 and 250 g. Animals were sacrificed using light anaesthesia with CO2 and cervical dislocation. The sciatic nerve of the rat, consisting of 27,000 sciatic nerve fibres, was isolated in a three-chamber recording bath (Fig. 5b). The sciatic nerves were dissected from the spinal cord to the knee, immersed in oxygenated (O2, 100%) saline solution and cleaned. The composition of the saline was (in mmoles/L): 136 NaCl, 11 glucose, 4.7 KCl, 2.4 CaCl2, 1.1 MgCl2, 1 NaHCO3, 10 HEPES, pH = 7.2). All experiments were performed at a constant temperature, 26.0±1.0°C. […] The nerve was mounted in a three-chambered recording bath made of Plexiglas, which is described elsewhere, [30]. The recording bath consisted of the recording (R in Fig. 5b), perfusion (P) and stimulating (S) chambers, each with a volume of 12 mL. The nCAP (Fig. 5a) was generated by stimulating (1 Hz) the part of the nerve in the stimulating chamber and was recorded in the recording chamber every second using standard electrophysiological methods. The nCAP was monitored throughout the experiment as an indication of the vitality of the nerve fibres in the recording bath. […] Immediately after the nCAP was eliminated, the saline+compound was removed and the nerve was washed out. Then, recovery of the nCAP in normal stagnant saline was monitored for 24 h. It is worth noting that the recording bath is designed in such a way that the chambers with the saline and 2-H (the nerves and the recording electrodes) was shielded from the air by using the cover (c in Fig. 5b) to avoid evaporation of the volatile 2-H. The saline with 2-H was added through a small diameter opening on the cover.
For further data analysis, the amplitude of the nCAPs, estimated from baseline to peak (Fig. 5), were measured at a specific time (every 1.0 s, 1.0 min or 1.0 h) and were expressed as a percentage of the amplitude of the nCAP at t = 0 (which was considered to be 100%). In the neuropharmacological experiments, time t = 0 was considered the time before application of the compound under investigation. […] The data were fitted in the program GraphPad Prism 5.0 using a one-phase exponential decay equation for the IC50. Data were analyzed by one-way ANOVA and Bonferroni’s post hoc tests, when required. Significance was determined using Students t-test or ANOVA as appropriate (p<0.05).

hNav1.2 channels = biological target: T1, hNav1.2 channels (Homo sapiens, UniProt Q99250); assay: Patch-clamp (PatchXpress 7000A) on transfected CHO cells, hNav1.2; type: cell-based; conditions: for IC50: CHO cells, n = 6, mean ± SEM, 2-H exposure limited to 3 min; for times less active than lidocaine: hNav1.2
T1 construct: expressed in transfected cells; host or cells: CHO-K1 (ATCC CCL-61)
Description: (§1) To test whether 2-H can act by blocking VGNaCs, the PatchXpress 7000A was used. Mammalian CHO (Chinese hamster ovary) transfected with ion hNav1.2 and hNav1.6 channels cDNAs (SCN2A and SCN8A genes) were exposed to 2-H under both tonic and phasic conditions. The mammalian CHO-K1 epithelial embryonic cell line (ATCC number CCL-61) from Cricetulus griseus was obtained from ATCC, Manassas, VA. CHO-K1 cells were transfected with either hNav1.2 or hNav1.6 channel cDNA (SCN2A and SCN8A genes, respectively) and were exposed to 2-H under both tonic and phasic conditions.
(§2) The effects of 2-H were evaluated on hNav1.2 at 0.73, 1.46, 2.19, and 2.92 mg/mL and on hNav1.6 channels at 0.1, 0.36, 0.73, and 1.46 mg/mL, with each concentration tested in at least six cells (n = 6). Cells were exposed to each concentration of 2-H and measurements of the inward current were obtained within the first 3 min of exposure. […] Since the PatchXpress has open cell chambers where the testing occurs, there is no way to hermetically seal the experiment.
(§3) Based on this analysis, we estimated the IC50.

hNav1.6 channels = biological target: T2, hNav1.6 channels (Homo sapiens, UniProt Q9UQD0); assay: Patch-clamp (PatchXpress 7000A) on transfected CHO cells, hNav1.6; type: cell-based; conditions: for IC50: CHO cells, n = 6, mean ± SEM, 2-H exposure limited to 3 min, read-out: hNav1.6 IC50 (converted); for times less active than lidocaine: hNav1.6
T2 construct: expressed in transfected cells; host or cells: CHO-K1 (ATCC CCL-61)
Description: as §1, §2, §3

T1 sequence (Q99250 whole entry): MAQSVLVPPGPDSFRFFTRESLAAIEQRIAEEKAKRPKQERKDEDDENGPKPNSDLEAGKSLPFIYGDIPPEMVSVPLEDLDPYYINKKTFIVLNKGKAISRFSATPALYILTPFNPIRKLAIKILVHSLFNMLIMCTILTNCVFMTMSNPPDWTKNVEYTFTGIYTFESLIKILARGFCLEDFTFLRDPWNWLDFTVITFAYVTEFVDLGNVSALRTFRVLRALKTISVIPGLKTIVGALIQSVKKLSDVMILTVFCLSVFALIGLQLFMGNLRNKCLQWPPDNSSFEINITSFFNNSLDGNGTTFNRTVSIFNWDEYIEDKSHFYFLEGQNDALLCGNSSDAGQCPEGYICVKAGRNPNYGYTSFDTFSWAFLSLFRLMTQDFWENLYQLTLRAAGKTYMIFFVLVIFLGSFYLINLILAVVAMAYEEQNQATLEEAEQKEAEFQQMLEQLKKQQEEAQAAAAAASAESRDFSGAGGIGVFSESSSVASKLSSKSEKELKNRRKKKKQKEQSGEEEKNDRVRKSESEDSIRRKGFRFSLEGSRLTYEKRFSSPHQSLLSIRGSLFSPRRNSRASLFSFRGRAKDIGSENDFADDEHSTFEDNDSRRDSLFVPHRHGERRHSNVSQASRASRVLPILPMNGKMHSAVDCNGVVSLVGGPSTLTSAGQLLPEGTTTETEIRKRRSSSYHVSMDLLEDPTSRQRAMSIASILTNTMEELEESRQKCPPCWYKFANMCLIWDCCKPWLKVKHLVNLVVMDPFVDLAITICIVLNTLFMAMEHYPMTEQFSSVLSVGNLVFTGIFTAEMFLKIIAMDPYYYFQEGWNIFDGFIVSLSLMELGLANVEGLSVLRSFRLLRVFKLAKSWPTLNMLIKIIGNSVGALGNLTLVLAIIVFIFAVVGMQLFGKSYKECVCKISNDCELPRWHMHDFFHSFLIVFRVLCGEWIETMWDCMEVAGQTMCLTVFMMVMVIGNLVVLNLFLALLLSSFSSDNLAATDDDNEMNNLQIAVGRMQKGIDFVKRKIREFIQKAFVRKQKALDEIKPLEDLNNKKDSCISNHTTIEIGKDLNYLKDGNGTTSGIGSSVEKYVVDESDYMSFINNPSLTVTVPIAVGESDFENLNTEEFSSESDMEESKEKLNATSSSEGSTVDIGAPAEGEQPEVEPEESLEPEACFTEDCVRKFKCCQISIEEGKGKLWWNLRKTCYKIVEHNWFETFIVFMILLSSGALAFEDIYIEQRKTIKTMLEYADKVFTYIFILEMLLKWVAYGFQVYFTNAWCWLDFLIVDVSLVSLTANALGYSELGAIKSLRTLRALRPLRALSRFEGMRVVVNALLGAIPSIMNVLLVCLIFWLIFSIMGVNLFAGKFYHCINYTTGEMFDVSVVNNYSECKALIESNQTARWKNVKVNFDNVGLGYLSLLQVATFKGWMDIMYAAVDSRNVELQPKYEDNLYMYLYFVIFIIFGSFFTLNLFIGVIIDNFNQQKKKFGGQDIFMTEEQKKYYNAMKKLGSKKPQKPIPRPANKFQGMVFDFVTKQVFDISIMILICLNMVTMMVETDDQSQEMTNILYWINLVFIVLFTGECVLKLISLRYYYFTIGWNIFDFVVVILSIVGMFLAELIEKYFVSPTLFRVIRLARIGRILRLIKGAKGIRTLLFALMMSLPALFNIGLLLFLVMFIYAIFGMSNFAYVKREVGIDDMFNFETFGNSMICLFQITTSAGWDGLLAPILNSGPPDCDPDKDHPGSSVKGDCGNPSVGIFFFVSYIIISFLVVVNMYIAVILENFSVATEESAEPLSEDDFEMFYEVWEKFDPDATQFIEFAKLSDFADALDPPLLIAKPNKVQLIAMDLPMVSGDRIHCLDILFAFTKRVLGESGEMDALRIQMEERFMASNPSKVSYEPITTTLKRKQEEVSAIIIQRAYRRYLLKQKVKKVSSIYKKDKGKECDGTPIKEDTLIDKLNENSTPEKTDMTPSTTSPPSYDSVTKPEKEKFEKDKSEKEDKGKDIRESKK
T2 sequence (Q9UQD0 whole entry): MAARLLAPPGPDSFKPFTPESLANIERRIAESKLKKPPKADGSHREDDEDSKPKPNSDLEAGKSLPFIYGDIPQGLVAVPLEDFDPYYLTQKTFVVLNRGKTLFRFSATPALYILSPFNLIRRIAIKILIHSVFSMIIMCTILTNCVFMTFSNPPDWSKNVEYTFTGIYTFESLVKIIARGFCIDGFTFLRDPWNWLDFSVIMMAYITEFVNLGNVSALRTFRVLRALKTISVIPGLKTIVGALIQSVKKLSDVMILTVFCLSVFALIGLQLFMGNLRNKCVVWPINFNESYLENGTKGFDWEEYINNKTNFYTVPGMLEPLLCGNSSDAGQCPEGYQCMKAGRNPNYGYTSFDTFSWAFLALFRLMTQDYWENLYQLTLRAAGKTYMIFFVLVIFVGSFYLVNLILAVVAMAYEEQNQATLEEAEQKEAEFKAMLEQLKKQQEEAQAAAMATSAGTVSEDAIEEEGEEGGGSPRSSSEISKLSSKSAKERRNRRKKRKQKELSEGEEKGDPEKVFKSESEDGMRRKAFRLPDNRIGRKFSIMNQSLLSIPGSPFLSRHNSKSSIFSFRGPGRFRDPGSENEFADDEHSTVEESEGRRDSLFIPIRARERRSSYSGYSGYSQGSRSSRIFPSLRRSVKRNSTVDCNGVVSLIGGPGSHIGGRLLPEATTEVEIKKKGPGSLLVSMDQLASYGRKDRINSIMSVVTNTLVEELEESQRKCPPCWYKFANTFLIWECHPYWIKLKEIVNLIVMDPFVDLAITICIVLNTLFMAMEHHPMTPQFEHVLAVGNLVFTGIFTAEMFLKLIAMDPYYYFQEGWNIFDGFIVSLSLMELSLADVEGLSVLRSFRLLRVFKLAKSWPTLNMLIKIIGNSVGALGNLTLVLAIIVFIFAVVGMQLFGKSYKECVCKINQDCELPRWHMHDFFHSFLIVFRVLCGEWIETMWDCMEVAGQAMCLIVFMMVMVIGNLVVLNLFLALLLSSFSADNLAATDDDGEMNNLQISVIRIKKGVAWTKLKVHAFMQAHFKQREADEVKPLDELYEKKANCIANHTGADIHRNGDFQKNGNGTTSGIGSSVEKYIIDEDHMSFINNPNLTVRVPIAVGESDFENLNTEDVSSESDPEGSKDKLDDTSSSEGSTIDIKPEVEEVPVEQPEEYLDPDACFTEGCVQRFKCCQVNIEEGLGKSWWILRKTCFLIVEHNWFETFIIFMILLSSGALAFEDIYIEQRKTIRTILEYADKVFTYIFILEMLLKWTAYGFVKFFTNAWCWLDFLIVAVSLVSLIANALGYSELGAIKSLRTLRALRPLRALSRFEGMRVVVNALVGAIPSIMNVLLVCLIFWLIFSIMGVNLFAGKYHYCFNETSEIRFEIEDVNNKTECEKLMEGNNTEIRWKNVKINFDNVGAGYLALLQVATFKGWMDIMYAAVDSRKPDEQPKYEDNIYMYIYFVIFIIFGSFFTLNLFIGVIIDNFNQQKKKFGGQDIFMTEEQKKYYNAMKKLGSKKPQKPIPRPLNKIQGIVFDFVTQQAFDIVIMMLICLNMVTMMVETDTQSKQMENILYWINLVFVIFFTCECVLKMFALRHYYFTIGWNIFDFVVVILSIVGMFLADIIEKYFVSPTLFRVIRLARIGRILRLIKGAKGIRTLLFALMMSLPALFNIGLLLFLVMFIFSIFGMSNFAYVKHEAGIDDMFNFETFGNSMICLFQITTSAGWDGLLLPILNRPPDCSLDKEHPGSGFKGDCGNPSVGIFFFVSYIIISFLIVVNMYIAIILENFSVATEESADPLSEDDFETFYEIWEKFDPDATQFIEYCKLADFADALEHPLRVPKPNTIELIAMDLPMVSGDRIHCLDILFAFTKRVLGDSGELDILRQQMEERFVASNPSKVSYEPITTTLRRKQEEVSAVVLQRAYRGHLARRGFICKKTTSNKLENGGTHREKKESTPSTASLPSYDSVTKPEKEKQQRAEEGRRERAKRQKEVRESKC

## CCCCCC(C)=O [2-H, 2-heptanone]
Varroa destructor; 0.025 µL applied topically to the sternum, n = 10
  effect on gravitational reflex: distorted
Varroa destructor; 0.061 µL applied topically, 12 h of observation
  recovery from paralysis: no recovery
[1]
  neurotoxic action in 24 h monitoring of nerve vitality: no neurotoxic action
[1]; 1.41 mg/mL
  IT0 (time required for 100% inhibition of the nCAP): 517.5 ± 25.62 s
  IT50 (time to inhibit nCAP amplitude to 50% of control): 109.7 ± 2.87 s
[1]; 2.28 mg/mL
  IT0 (time required for 100% inhibition of the nCAP): 358.8 ± 18.07 s
  IT50 (time to inhibit nCAP amplitude to 50% of control): 108.9 ± 0.22 s
[1]; 3.41 mg/mL
  IT0 (time required for 100% inhibition of the nCAP): 221.88 ± 7.32 s
  IT50 (time to inhibit nCAP amplitude to 50% of control): 39.14 ± 4.84 s
  time to complete elimination of the nCAP: 221.88 s
[1]; 10 mg/mL
  IT0 (time required for 100% inhibition of the nCAP): 195 ± 12 s
  IT50 (time to inhibit nCAP amplitude to 50% of control): 22.3 ± 1.1 s
[1]; Rattus norvegicus, read-out: IC50 from concentration-response curves of the IT0 values
  IC50: 469 µg/mL (≈ 4.11 mM)
[1]; Table 3, 3.41 mg/mL, unit not given in Table 3, s
  IT0: 221.88±7.32^a seconds
[1]; Table 3, 3.41 mg/mL, unit not given in Table 3, seconds per Table 2
  IT50: 39.14 ± 4.84 s
[1]; after elimination of nCAP, remained at this level for at least 24 h, n = 8
  recovery of nCAP amplitude after wash with normal saline: 89.51%
hNav1.2 channels; Phasic Experiment
  IC50: 6.57 mM
hNav1.2 channels; Tonic Experiment
  IC50: 9.02 mM
hNav1.2 channels; phasic experiments
  times less active than lidocaine: 7.50 times
hNav1.2 channels; tonic experiments
  times less active than lidocaine: 3.97 times
hNav1.6 channels; Phasic Experiment
  IC50: 4.64 mM
hNav1.6 channels; Tonic Experiment
  IC50: 7.18 mM
hNav1.6 channels; phasic experiments
  times less active than lidocaine: 7.57 times
hNav1.6 channels; tonic experiments
  times less active than lidocaine: 2.82 times
